Source: publication PMC10226132, “First-in-Class Selective Inhibitors of the Lysine Acetyltransferase KAT8” (Journal of Medicinal Chemistry, 2023)

How the values were obtained:
H4K16Ac in HT29 cells = test: Western blot of H4K16Ac and KAT8 levels in HT29 cells; format: cell-based, human; conditions: increasing concentrations, 24 h
Protocol: (§1) For WB experiments, the cells were lysed in RIPA buffer supplemented with 1× […] protease inhibitor cocktail (Sigma-Aldrich, S8830); 20 μg of total protein was resolved in 13.5% gels by SDS-PAGE. Then, the proteins were transferred to nitrocellulose membranes (Biorad Laboratories). Membranes were blocked for 1 h and incubated overnight with the appropriate primary antibody at 4 °C. After incubation, membranes were washed and incubated with the appropriate secondary antibody (Biorad Laboratories) for 1 h at room temperature. Following primary rabbit monoclonal antibodies H4K16Ac (1:1000, E2B8W, Rabbit mAb#13534, Cell Signalling Technology), KAT8 (1:1000, D5T3R Rabbit mAb #46862 Cell Signalling Technology), GAPDH (1:1000, sc-32233, Santa Cruz Biotechnologies), anti-LC3B (Sigma-Aldrich, L7543), anti-SQSTM1/p62 (Santa Cruz Biotechnology, sc-28,359), and anti-GAPDH (Santa Cruz Biotechnology, sc-32,233). Secondary antibodies: anti-mouse (Bio-Rad Laboratories, 1,706,515) or anti-rabbit (Bio-Rad Laboratories, 1,706,516) IgG-horseradish peroxidase-conjugated antibodies. Detection was performed by ECL Western Blotting Substrate (Biorad Laboratories). Images of blots were acquired through the ChemiDoc Imaging Systems (Biorad Laboratories). The band signals were quantified using ImageJ, and values were normalized to relative controls, depending on the analysis.

HCT116 cells = test: MTT cell proliferation assay, HCT116; format: cell-based, human; conditions: for antiproliferative activity in HCT116: 10, 25, 50, 100 μM, 72 h; for IC50: Homo sapiens, HCT-116, 72 h treatment, MTT
Source text: (§2) Human commercially available AML U937, breast cancer MCF7, lung adenocarcinoma NCI-H460, H1299 and A-549, glioblastoma U251, B lymphocyte AHH1 cell lines were maintained in compete 10% foetal bovine serum (FBS,) RPMI 1640 (Euroclone, Milan, IT) medium. Human commercially available colon cancer HCT116 and HT29 lines and cervix adenocarcinoma HeLa cells were maintained in compete 10% FBS Dulbecco’s Modified Eagle Medium (DMEM) high glucose medium (Euroclone). L-Glutamine, FBS, and penicillin streptomycin mixture added to medium were obtained from Euroclone. All cell lines were cultured at 37 °C in a humidified atmosphere of 5% CO2:95% air and were tested for mycoplasma contamination routinely by RT-PCR.
(§3) For analysis of cell proliferation, cells were plated in sextuplicate on 96-well plates in complete media. After 24 h, cells were exposed to different drugs for 72 h. The inhibitory effect of different drugs was assessed by MTT (Sigma, St. Louis, MO, USA) colorimetric assays as previously reported.[67] Aqueous DMSO (0.5% v/v) was used as a control (untreated). The results are reported as “viability of drug-treated cells/viability of untreated cells” × 100 and represent the average ±SD of three independent experiments. IC50 values were using fitted by nonlinear regression using GraphPad Prism 8.0.

MCF7 cells = test: MTT cell proliferation assay, MCF7; format: cell-based, human; conditions: 10, 25, 50, 100 μM, 72 h
Source text: as §2, §3

H1299 cells = test: MTT cell proliferation assay, H1299; format: cell-based, human; conditions: for antiproliferative activity in H1299: 10, 25, 50, 100 μM, 72 h; for IC50: Homo sapiens, NCI-H1299, 72 h treatment, MTT
Source text: as §2, §3

HeLa cells = test: Annexin V/PI analysis, HeLa; format: cell-based, human; conditions: 50 and 100 μM, 72 h, compared to control
Protocol: For the analysis of the progression of cells through cell cycle phases and sub-G1 peak identification, 24 h after plating, cells were treated with the different compounds. After 72 h, both floating and adherent cells were collected and fixed with cold 70% ethanol. At least 24 h after fixation, cells were incubated with 0.025 mg/mL Propidium Iodide for 15 min at room temperature and analyzed. For Annexin V analysis, 24 h after plating, cells were treated with 50 and 100 μM of the compounds. In the case of chloroquine experiments, 10 μM chloroquine (Sigma-Aldrich, A9165) was added 30 min before compounds. 72 h after treatment, both floating and adherent cells were collected and stained with an Annexin V-FITC apoptosis detection kit (ENZO #ALX-850-020-KI). Samples were incubated 15 min in the dark at rt, and 10,000 events were then analyzed.

KAT8 = biological target: T1, KAT8 (Homo sapiens, UniProt Q9H7Z6); test: CETSA target engagement in HT29 cells; format: cell-based; conditions: 100 μM, 4 h, 59 °C
T1 construct: endogenous in cells; host or cells: HT29
Protocol: Target engagement in cells was determined by CETSA.[65],[66] For CETSA experiments with cells treated in culture, ∼1 × 10^6 HT29 were treated with DMSO (0.5% v/v final) or 100 μM compound for 4 h at 37 °C and 5% CO2 in a humidified incubator. The cells were harvested, washed twice with PBS, and resuspended in PBS with protease inhibitors. The cell suspensions were then distributed into PCR tubes, heated at the indicated temperature in a SimpliAmp Thermal Cycler (Applied Biosystems) for 3 min, and then cooled for another 3 min at rt. The cell suspensions were then lysed by freeze-thawing three times with 3 min incubations in an ethanol/dry ice bath and water bath at 37 °C. The lysates were then centrifuged at 20,000×g for 30 min at 4 °C to remove cellular debris and protein aggregates, and lysates were prepared for WB analysis. Proteins were separated by SDS-PAGE on 13.5% gels and were transferred to nitrocellulose membranes (Biorad Laboratories). Membranes were blocked for 1 h and incubated overnight with the appropriate primary antibody at 4 °C. After incubation, membranes were washed and incubated with the appropriate secondary antibody (Biorad Laboratories) for 1 h at room temperature. […] The band signals were quantified using ImageJ and values normalized to the 37 °C DMSO control.

[1] = tested on: LC3 and p62 in HCT116 cells; test: Western blot of autophagic markers in HCT116 cells; format: cell-based, human; conditions: increasing doses, 48 h
Protocol: as §1

HT29 cells = test: MTT cell proliferation assay, HT29; format: cell-based, human; conditions: for antiproliferative activity in HT29: 10, 25, 50, 100 μM; for IC50: Homo sapiens, HT-29, 72 h treatment, MTT
Source text: as §2, §3

T1 sequence (Q9H7Z6 whole entry): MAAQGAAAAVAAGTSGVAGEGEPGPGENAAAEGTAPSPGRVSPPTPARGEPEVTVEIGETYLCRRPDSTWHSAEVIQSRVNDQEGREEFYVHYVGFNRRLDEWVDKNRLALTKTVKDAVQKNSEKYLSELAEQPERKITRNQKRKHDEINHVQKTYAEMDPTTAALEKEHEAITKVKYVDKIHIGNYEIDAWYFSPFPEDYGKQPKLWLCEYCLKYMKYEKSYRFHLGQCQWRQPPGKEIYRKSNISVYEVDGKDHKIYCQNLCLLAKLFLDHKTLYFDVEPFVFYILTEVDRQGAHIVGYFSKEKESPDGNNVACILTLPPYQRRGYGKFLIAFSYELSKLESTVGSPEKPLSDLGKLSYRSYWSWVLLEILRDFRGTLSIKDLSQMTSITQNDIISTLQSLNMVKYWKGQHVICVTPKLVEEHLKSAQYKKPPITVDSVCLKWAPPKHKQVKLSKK

SMILES: CC1=NN(c2ccc(C(=O)O)cc2)C(=O)/C1=C\c1ccc[nH]1 [Compound 19, (Z)-4-(4-((1H-Pyrrol-2-yl)methylene)-3-methyl-5-oxo-4,5-dihydro-1H-pyrazol-1-yl)benzoic Acid]
- KAT8 expression level (WB) (H4K16Ac in HT29 cells): no consistent variation in KAT8 levels
- histone H4K16 acetylation levels (WB) (H4K16Ac in HT29 cells): induced a decrease in histone H4 acetylation levels
- antiproliferative activity in HCT116 (HCT116 cells): dose-dependent antiproliferative effects
- IC50 (HCT116 cells): 39.4 ± 8.2 µM
- antiproliferative activity in MCF7 (MCF7 cells): neither inhibitor had any effect
- antiproliferative activity in H1299 (H1299 cells): dose-dependent antiproliferative effects
- IC50 (H1299 cells): 52.1 ± 10.6 µM
- apoptotic cell population (Annexin V), HeLa (HeLa cells): only a slight increase in apoptotic cell population
- target engagement (stabilization of KAT8 against thermal-induced aggregation) (KAT8): stabilize KAT8 against thermal-induced aggregation
- LC3-II/-I ratio and p62 autophagic markers (WB), HCT116 [1]: modulation of the LC3-II/-I ratio and p62 autophagic markers
- antiproliferative activity in HT29 (HT29 cells; 72 h): a certain degree of antiproliferative activity
- IC50 (HT29 cells): > 100 µM

SMILES: O=C(O)c1ccc(N2N=C(c3ccccc3)/C(=C/c3ccc[nH]3)C2=O)cc1 [Compound 34, (Z)-4-(4-((1H-Pyrrol-2-yl)methylene)-5-oxo-3-phenyl-4,5-dihydro-1H-pyrazol-1-yl)benzoic Acid]
- KAT8 expression level (WB) (H4K16Ac in HT29 cells): no consistent variation in KAT8 levels
- histone H4K16 acetylation levels (WB) (H4K16Ac in HT29 cells): induced a decrease in histone H4 acetylation levels
- antiproliferative activity in HCT116 (HCT116 cells): dose-dependent antiproliferative effects
- IC50 (HCT116 cells): 46.6 ± 11.5 µM
- antiproliferative activity in MCF7 (MCF7 cells): neither inhibitor had any effect
- antiproliferative activity in H1299 (H1299 cells): dose-dependent antiproliferative effects
- IC50 (H1299 cells): 41.6 ± 6.8 µM
- apoptotic cell population (Annexin V), HeLa (HeLa cells): only a slight increase in apoptotic cell population
- target engagement (stabilization of KAT8 against thermal-induced aggregation) (KAT8): stabilize KAT8 against thermal-induced aggregation
- LC3-II/-I ratio and p62 autophagic markers (WB), HCT116 [1]: modulation of the LC3-II/-I ratio and p62 autophagic markers
- decrease of cell viability, HT29 (HT29 cells; 100 μM, 72 h): 70%
- antiproliferative activity in HT29 (HT29 cells; 72 h): a certain degree of antiproliferative activity
- IC50 (HT29 cells): 54 ± 10.9 µM
